From ChEMBL document CHEMBL1201862, “PubChem BioAssay data set” (2004)
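Grown in 96-well plates, cells were treated for 48 hours with each compound at five concentrations. Insufficient inhibition: endpoint recorded as highest concentration tested. GI50 = concentration required for 50% inhibition of growth.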 Activity calls are given as the source filed them. Cut-off read from the data, not from the text of the source: active = GI50 up to about 1.1 µM and inactive = higher.

Assays:
Assay in all cases: NCI anticancer screen, dose series, 48 h
BT-549 = test system: BT-549
COLO 205 = test system: COLO 205
DU-145 = test system: DU-145
HCC 2998 = test system: HCC 2998
HCT-15 = test system: HCT-15
IGROV-1 = test system: IGROV-1
MDA-MB-231 = test system: MDA-MB-231
MOLT-4 = test system: MOLT-4
Malme-3M = test system: Malme-3M
NCI-H226 = test system: NCI-H226
NCI-H23 = test system: NCI-H23
NCI-H460 = test system: NCI-H460
NCI/ADR-RES = test system: NCI/ADR-RES
OVCAR-5 = test system: OVCAR-5
OVCAR-8 = test system: OVCAR-8
SF-295 = test system: SF-295
SF-539 = test system: SF-539
SW-620 = test system: SW-620
T47D = test system: T47D
UACC-257 = test system: UACC-257

Row | Structure (SMILES) | GI50 (BT-549) | GI50 (COLO 205) | GI50 (DU-145) | GI50 (HCC 2998) | GI50 (HCT-15) | GI50 (IGROV-1) | GI50 (MDA-MB-231) | GI50 (MOLT-4) | GI50 (Malme-3M) | GI50 (NCI-H226) | GI50 (NCI-H23) | GI50 (NCI-H460) | GI50 (NCI/ADR-RES) | GI50 (OVCAR-5) | GI50 (OVCAR-8) | GI50 (SF-295) | GI50 (SF-539) | GI50 (SW-620) | GI50 (T47D) | GI50 (UACC-257)
1 | CC12CCC(C(Nc3ccccn3)C1=O)C2(C)C (stereo not given) | > 100 µM (inactive) | > 100 µM (inactive) | > 100 µM (inactive) | 29.9 µM (inactive) | > 100 µM | > 100 µM (inactive) | > 100 µM (inactive) | > 100 µM (inactive) | > 100 µM (inactive) | > 100 µM (inactive) | > 100 µM (inactive) | > 100 µM (inactive) | > 100 µM (inactive) | > 100 µM (inactive) | > 100 µM (inactive) | > 100 µM (inactive) | > 100 µM (inactive) | > 100 µM (inactive) | > 100 µM (inactive) | > 100 µM (inactive)
2 | CCOC(=O)c1c(NS(=O)(=O)c2ccc(Br)cc2)sc2c1CCCC2 | 7.59 µM (inactive) | 13 µM (inactive) | 8 µM (inactive) | 16.7 µM (inactive) | 7.35 µM | 4.21 µM (inactive) | 7.29 µM (inactive) | 4.91 µM (inactive) | 12.9 µM (inactive) | 3.66 µM (inactive) | 6.34 µM (inactive) | 6.4 µM (inactive) | 1.57 µM (inactive) | 6.71 µM (inactive) | 5.89 µM (inactive) | 3.92 µM (inactive) | 7.91 µM (inactive) | 16.5 µM (inactive) | 6.61 µM (inactive) | 9.23 µM (inactive)
3 | CCOC(=O)c1c(-c2ccccc2)[nH]c2ccc(Cl)cc2c1=O | 30.8 µM (inactive) | 47.5 µM (inactive) | 56 µM (inactive) | 37.9 µM (inactive) | 33.3 µM | 29.6 µM (inactive) | 31.3 µM (inactive) | 28.3 µM (inactive) | 61.8 µM (inactive) | 68.9 µM (inactive) | 41.1 µM (inactive) | 30.3 µM (inactive) | 32.2 µM (inactive) | > 100 µM (inactive) | 31.8 µM (inactive) | 47.8 µM (inactive) | 29.9 µM (inactive) | > 100 µM (inactive) | 23.7 µM (inactive) | 36 µM (inactive)
